In patent publication US12023333B2, “Phenyl-sulfamoyl.benzoyc acids as ERAP1 modulators” (GREY WOLF THERAPEUTICS LIMITED, priority 2019, dated 2024):

Molecular target: T1, Purified ERAP1(37-941)-10His (ERAP1) (Homo sapiens, UniProt Q9NZ08)
T1 construct: Purified ERAP1(37-941)-10His (ERAP1); 10His (C)
Assay: ERAP1 mediated hydrolysis of an amide substrate measured in a biochemical system (10-mer decapeptide substrate)
Conditions: 10-mer substrate, 23° C. for 1 h, excitation 279 nm and emission 355 nm; read-out: IC50 vs Decapeptide WRVYEKC(Dnp)ALK-acid (where Dnp is Dinitrophenyl maleimide) (10-mer)
How it was run: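 ERAP1(37-941)-10His preincubated with compound in 25 mM Bis-tris propane, 0.05% HPMC, pH 7.75, then reacted 1 h at 23 °C with 10-mer WRVYEKC(Dnp)ALK (100 μM solution added in equal volume). Fluorescence read at ex 279/em 355 nm; IC50 from 4-parameter fit.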

T1 sequence (Q9NZ08 37-941): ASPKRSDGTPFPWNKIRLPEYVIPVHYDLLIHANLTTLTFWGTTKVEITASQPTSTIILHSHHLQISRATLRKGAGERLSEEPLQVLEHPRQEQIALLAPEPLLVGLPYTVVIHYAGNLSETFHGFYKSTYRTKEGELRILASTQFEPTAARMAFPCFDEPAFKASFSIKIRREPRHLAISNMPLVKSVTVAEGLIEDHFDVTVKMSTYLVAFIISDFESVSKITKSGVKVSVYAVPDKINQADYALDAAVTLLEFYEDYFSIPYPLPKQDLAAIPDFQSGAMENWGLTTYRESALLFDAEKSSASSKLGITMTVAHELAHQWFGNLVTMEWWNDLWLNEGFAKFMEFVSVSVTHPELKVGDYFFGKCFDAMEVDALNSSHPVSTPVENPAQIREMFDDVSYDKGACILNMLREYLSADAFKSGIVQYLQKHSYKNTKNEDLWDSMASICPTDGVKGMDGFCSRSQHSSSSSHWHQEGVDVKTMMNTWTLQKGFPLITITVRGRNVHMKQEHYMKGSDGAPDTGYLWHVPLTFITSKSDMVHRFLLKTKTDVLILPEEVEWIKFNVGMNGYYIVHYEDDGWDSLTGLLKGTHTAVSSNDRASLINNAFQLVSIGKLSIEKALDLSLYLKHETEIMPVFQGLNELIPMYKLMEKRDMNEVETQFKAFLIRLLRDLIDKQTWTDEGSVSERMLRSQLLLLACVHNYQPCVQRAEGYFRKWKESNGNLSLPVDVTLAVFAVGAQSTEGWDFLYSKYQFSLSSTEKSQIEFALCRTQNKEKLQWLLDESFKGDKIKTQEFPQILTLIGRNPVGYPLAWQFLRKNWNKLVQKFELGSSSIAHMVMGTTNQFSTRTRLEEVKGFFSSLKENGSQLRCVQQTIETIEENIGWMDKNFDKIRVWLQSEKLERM

IC50, < 500 nM:
N#Cc1cc(NS(=O)(=O)c2cc(C(=O)O)ccc2C2CC2)c(-c2nccs2)cc1Cl [Example 192, 3-(N-(4-chloro-5-cyano-2-(thiazol-2-yl)phenyl)sulfamoyl)-4-cyclopropylbenzoic acid]
Cc1oncc1-c1cc(NS(=O)(=O)c2cc(C(=O)O)ccc2C2CC2)c(-c2ccccn2)cc1Cl [Example 193, 3-(N-(4-chloro-5-(5-methylisoxazol-4-yl)-2-(pyridin-2-yl)phenyl)sulfamoyl)-4-cyclopropylbenzoic acid]
Cc1oncc1-c1ccc(-n2cccc2)c(NS(=O)(=O)c2cc(C(=O)O)ccc2C2CC2)c1 [Example 194, 4-cyclopropyl-3-(N-(5-(5-methylisoxazol-4-yl)-2-(pyrrol-1-yl)phenyl)sulfamoyl)benzoic acid]
N#Cc1cc(NS(=O)(=O)c2cc(C(=O)O)ccc2C2CC2)c(-c2cscn2)cc1F [Example 196, 3-(N-(5-cyano-4-fluoro-2-(thiazol-4-yl)phenyl)sulfamoyl)-4-cyclopropylbenzoic acid]
Cn1nccc1-c1ccc(-n2cccc2)c(NS(=O)(=O)c2cc(C(=O)O)ccc2C2CC2)c1 [Example 197, 4-cyclopropyl-3-(N-(5-(1-methylpyrazol-5-yl)-2-(pyrrol-1-yl)phenyl)sulfamoyl)benzoic acid]
O=C(O)c1ccc(C2CC2)c(S(=O)(=O)Nc2cc(-c3ccns3)c(F)cc2-n2cccc2)c1 [Example 198, 4-cyclopropyl-3-(N-(4-fluoro-5-(isothiazol-5-yl)-2-(pyrrol-1-yl)phenyl)sulfamoyl)benzoic acid]
Cn1nccc1-c1cc(NS(=O)(=O)c2cc(C(=O)O)ccc2C2CC2)c(-n2cccc2)cc1F [Example 199, 4-cyclopropyl-3-(N-(4-fluoro-5-(1-methylpyrazol-5-yl)-2-(pyrrol-1-yl)phenyl)sulfamoyl)benzoic acid]
Cn1nccc1-c1cc(NS(=O)(=O)c2cc(C(=O)O)ccc2C2CC2)c(-n2cccc2)cc1Cl [Example 200, 3-(N-(4-chloro-5-(1-methylpyrazol-5-yl)-2-(pyrrol-1-yl)phenyl)sulfamoyl)-4-cyclopropylbenzoic acid]
Cn1ncnc1-c1cc(NS(=O)(=O)c2cc(C(=O)O)ccc2C2CC2)c(-n2cccc2)cc1F [Example 201, 4-cyclopropyl-3-(N-(4-fluoro-5-(1-methyl-1,2,4-triazol-5-yl)-2-(pyrrol-1-yl)phenyl)sulfamoyl)benzoic acid]
Cc1oncc1-c1cc(NS(=O)(=O)c2cc(C(=O)O)ccc2C2CC2)c(-n2cccc2)cc1F [Example 202, 4-cyclopropyl-3-(N-(4-fluoro-5-(5-methylisoxazol-4-yl)-2-(pyrrol-1-yl)phenyl)sulfamoyl)benzoic acid]
O=C(O)c1ccc(C2CC2)c(S(=O)(=O)Nc2cc(-c3ccns3)c(Cl)cc2-n2cccc2)c1 [Example 203, 3-(N-(4-chloro-5-(isothiazol-5-yl)-2-(pyrrol-1-yl)phenyl)sulfamoyl)-4-cyclopropylbenzoic acid]
Cn1ncnc1-c1cc(NS(=O)(=O)c2cc(C(=O)O)ccc2C2CC2)c(-n2cccc2)cc1Cl [Example 204, 3-(N-(4-chloro-5-(1-methyl-1,2,4-triazol-5-yl)-2-(pyrrol-1-yl)phenyl)sulfamoyl)-4-cyclopropylbenzoic acid]
Cc1oncc1-c1cc(NS(=O)(=O)c2cc(C(=O)O)ccc2C2CC2)c(-n2cccc2)cc1Cl [Example 205, 3-(N-(4-chloro-5-(5-methylisoxazol-4-yl)-2-(pyrrol-1-yl)phenyl)sulfamoyl)-4-cyclopropylbenzoic acid]
O=C(O)c1ccc(C2CC2)c(S(=O)(=O)Nc2cc(-n3cnnn3)c(Cl)cc2-n2cccc2)c1 [Example 206, 3-(N-(4-chloro-2-(pyrrol-1-yl)-5-(tetrazol-1-yl)phenyl)sulfamoyl)-4-cyclopropylbenzoic acid]
O=C(O)c1ccc(C2CC2)c(S(=O)(=O)Nc2cc(-n3cnnn3)c(F)cc2-n2cccc2)c1 [Example 207, 4-cyclopropyl-3-(N-(4-fluoro-2-(pyrrol-1-yl)-5-(tetrazol-1-yl)phenyl)sulfamoyl)benzoic acid]
O=C(O)c1ccc(C2CC2)c(S(=O)(=O)Nc2cc(-n3cnnn3)ccc2-n2cccc2)c1 [Example 208, 3-(N-(2-(pyrrol-1-yl)-5-(tetrazol-1-yl)phenyl)sulfamoyl)-4-cyclopropylbenzoic acid]
